PubChem BioAssay AID2060621 (Molecular Pharmacology Branch, DTP, NCI, 2025)

Tested on: 324938-238-R-J1-PDC complex spheroids viability
Experiment: Anticancer human tumor 324938-238-R-J1-PDC patient-derived bladder carcinoma cell line growth inhibition [CLK]
Conditions: for IC50: curve of first compound; for viability, T/C: stronger effect = lower value
How it was run: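 Patient-derived tumor cells grown as complex spheroids with HUVEC endothelial cells and mesenchymal stem cells, treated with drug combinations. Concentrations descend in half-log steps from near clinical Cmax, or from 10 microM if Cmax unknown.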

[1] = second compound 0.0316 µM, first compound 0.0316 µM
[2] = second compound 0.0316 µM, first compound 0.1 µM
[3] = second compound 0.1 µM, first compound 0.0316 µM
[4] = second compound 0.1 µM, first compound 0.1 µM
[5] = second compound 0.316 µM, first compound 0.0316 µM
[6] = second compound 0.316 µM, first compound 0.1 µM
[7] = second compound 1 µM, first compound 0.0316 µM
[8] = second compound 1 µM, first compound 0.1 µM
[9] = second compound 3.16 µM, first compound 0.0316 µM
[10] = second compound 3.16 µM, first compound 0.1 µM
[11] = second compound 10 µM, first compound 0.0316 µM
[12] = second compound 10 µM, first compound 0.1 µM
[13] = second compound 0.0316 µM, first compound 0.316 µM
[14] = second compound 0.0316 µM, first compound 1 µM
[15] = second compound 0.0316 µM, first compound 3.16 µM
[16] = second compound 0.0316 µM, first compound 10 µM
[17] = second compound 0.1 µM, first compound 0.316 µM
[18] = second compound 0.1 µM, first compound 1 µM
[19] = second compound 0.1 µM, first compound 3.16 µM
[20] = second compound 0.1 µM, first compound 10 µM
[21] = second compound 0.316 µM, first compound 0.316 µM
[22] = second compound 0.316 µM, first compound 1 µM
[23] = second compound 0.316 µM, first compound 3.16 µM
[24] = second compound 0.316 µM, first compound 10 µM
[25] = second compound 1 µM, first compound 0.316 µM
[26] = second compound 1 µM, first compound 1 µM
[27] = second compound 1 µM, first compound 3.16 µM
[28] = second compound 1 µM, first compound 10 µM
[29] = second compound 3.16 µM, first compound 0.316 µM
[30] = second compound 3.16 µM, first compound 1 µM
[31] = second compound 3.16 µM, first compound 3.16 µM
[32] = second compound 3.16 µM, first compound 10 µM
[33] = second compound 10 µM, first compound 0.316 µM
[34] = second compound 10 µM, first compound 1 µM
[35] = second compound 10 µM, first compound 3.16 µM
[36] = second compound 10 µM, first compound 10 µM
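Also: viability read after seven days of drug exposure.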
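For viability, T/C in this document: 100% = DMSO vehicle control wells.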

Compound: Cn1ncnc1[C@H]1c2n[nH]c(=O)c3cc(F)cc(c23)N[C@@H]1c1ccc(F)cc1 + CN1CCN(c2cc(C(=O)Nc3cc4cc(-c5cnn(C)c5)ccc4cn3)ccn2)CC1
- IC50 (second compound 0.0316 µM): 8.66 nM
- IC50 (second compound 0.1 µM): 1.53 nM
- IC50 (second compound 0.316 µM): < 0.316 nM
- IC50 (second compound 1 µM): < 0.316 nM
- IC50 (second compound 3.16 µM): < 0.316 nM
- IC50 (second compound 10 µM): < 0.316 nM
- viability, T/C (second compound 0.0316 µM, first compound 0.000316 µM): 78%
- viability, T/C (second compound 0.0316 µM, first compound 0.001 µM): 74%
- viability, T/C (second compound 0.0316 µM, first compound 0.00316 µM): 58.2%
- viability, T/C (second compound 0.0316 µM, first compound 0.01 µM): 51.9%
- viability, T/C [1]: 32.5%
- viability, T/C [2]: 24.4%
- viability, T/C (second compound 0.1 µM, first compound 0.000316 µM): 57.5%
- viability, T/C (second compound 0.1 µM, first compound 0.001 µM): 54.8%
- viability, T/C (second compound 0.1 µM, first compound 0.00316 µM): 43.6%
- viability, T/C (second compound 0.1 µM, first compound 0.01 µM): 32.7%
- viability, T/C [3]: 27%
- viability, T/C [4]: 19.8%
- viability, T/C (second compound 0.316 µM, first compound 0.000316 µM): 23.8%
- viability, T/C (second compound 0.316 µM, first compound 0.001 µM): 22.4%
- viability, T/C (second compound 0.316 µM, first compound 0.00316 µM): 23.1%
- viability, T/C (second compound 0.316 µM, first compound 0.01 µM): 21.2%
- viability, T/C [5]: 18.5%
- viability, T/C [6]: 15%
- viability, T/C (second compound 1 µM, first compound 0.000316 µM): 0.86%
- viability, T/C (second compound 1 µM, first compound 0.001 µM): 0.77%
- viability, T/C (second compound 1 µM, first compound 0.00316 µM): 0.99%
- viability, T/C (second compound 1 µM, first compound 0.01 µM): 0.51%
- viability, T/C [7]: 0.6%
- viability, T/C [8]: 1.4%
- viability, T/C (second compound 3.16 µM, first compound 0.000316 µM): 0.15%
- viability, T/C (second compound 3.16 µM, first compound 0.001 µM): 0.2%
- viability, T/C (second compound 3.16 µM, first compound 0.00316 µM): 0.14%
- viability, T/C (second compound 3.16 µM, first compound 0.01 µM): 0.09%
- viability, T/C [9]: 0.12%
- viability, T/C [10]: 0.14%
- viability, T/C (second compound 10 µM, first compound 0.000316 µM): 0.07%
- viability, T/C (second compound 10 µM, first compound 0.001 µM): 0.13%
- viability, T/C (second compound 10 µM, first compound 0.00316 µM): 0.16%
- viability, T/C (second compound 10 µM, first compound 0.01 µM): 0.12%
- viability, T/C [11]: 0.12%
- viability, T/C [12]: 0.19%

Compound: Nc1ccn(C2OC(CO)C(O)C2(F)F)c(=O)n1 (stereo unspecified) + CN1CCN(c2cc(C(=O)Nc3cc4cc(-c5cnn(C)c5)ccc4cn3)ccn2)CC1
- IC50 (second compound 0.0316 µM): < 31.6 nM
- IC50 (second compound 0.1 µM): < 31.6 nM
- IC50 (second compound 0.316 µM): < 31.6 nM
- IC50 (second compound 1 µM): < 31.6 nM
- IC50 (second compound 3.16 µM): < 31.6 nM
- IC50 (second compound 10 µM): < 31.6 nM
- viability, T/C [1]: 31.4%
- viability, T/C [2]: 16.4%
- viability, T/C [13]: 11.3%
- viability, T/C [14]: 11.3%
- viability, T/C [15]: 6.96%
- viability, T/C [16]: 6.17%
- viability, T/C [3]: 25.3%
- viability, T/C [4]: 14.2%
- viability, T/C [17]: 11.5%
- viability, T/C [18]: 10.8%
- viability, T/C [19]: 5.43%
- viability, T/C [20]: 4.89%
- viability, T/C [5]: 18.9%
- viability, T/C [6]: 12.7%
- viability, T/C [21]: 10.2%
- viability, T/C [22]: 8.86%
- viability, T/C [23]: 5.88%
- viability, T/C [24]: 1.97%
- viability, T/C [7]: 0.83%
- viability, T/C [8]: 0.6%
- viability, T/C [25]: 0.57%
- viability, T/C [26]: 0.45%
- viability, T/C [27]: 0.37%
- viability, T/C [28]: 0.22%
- viability, T/C [9]: 0.13%
- viability, T/C [10]: 0.16%
- viability, T/C [29]: 0.15%
- viability, T/C [30]: 0.12%
- viability, T/C [31]: 0.14%
- viability, T/C [32]: 0.19%
- viability, T/C [11]: 0.11%
- viability, T/C [12]: 0.12%
- viability, T/C [33]: 0.19%
- viability, T/C [34]: 0.12%
- viability, T/C [35]: 0.17%
- viability, T/C [36]: 0.16%

Compound: O=C(c1cc(Cc2n[nH]c(=O)c3ccccc23)ccc1F)N1CCN(C(=O)C2CC2)CC1 + CN1CCN(c2cc(C(=O)Nc3cc4cc(-c5cnn(C)c5)ccc4cn3)ccn2)CC1
- IC50 (second compound 0.0316 µM): 4050 nM
- IC50 (second compound 0.1 µM): < 31.6 nM
- IC50 (second compound 0.316 µM): < 31.6 nM
- IC50 (second compound 1 µM): < 31.6 nM
- IC50 (second compound 3.16 µM): < 31.6 nM
- IC50 (second compound 10 µM): < 31.6 nM
- viability, T/C [1]: 76.9%
- viability, T/C [2]: 76.8%
- viability, T/C [13]: 65.2%
- viability, T/C [14]: 70.5%
- viability, T/C [15]: 55.5%
- viability, T/C [16]: 29.6%
- viability, T/C [3]: 46.9%
- viability, T/C [4]: 50.8%
- viability, T/C [17]: 42.5%
- viability, T/C [18]: 49.2%
- viability, T/C [19]: 36.4%
- viability, T/C [20]: 19.4%
- viability, T/C [5]: 20.6%
- viability, T/C [6]: 24.1%
- viability, T/C [21]: 19.9%
- viability, T/C [22]: 19.9%
- viability, T/C [23]: 18.9%
- viability, T/C [24]: 16.4%
- viability, T/C [7]: 1.69%
- viability, T/C [8]: 1.71%
- viability, T/C [25]: 1.98%
- viability, T/C [26]: 1.94%
- viability, T/C [27]: 2.27%
- viability, T/C [28]: 1.74%
- viability, T/C [9]: 0.26%
- viability, T/C [10]: 0.21%
- viability, T/C [29]: 0.25%
- viability, T/C [30]: 0.1%
- viability, T/C [31]: 0.36%
- viability, T/C [32]: 0.49%
- viability, T/C [11]: 0.11%
- viability, T/C [12]: 0.21%
- viability, T/C [33]: 0.24%
- viability, T/C [34]: 0.17%
- viability, T/C [35]: 0.26%
- viability, T/C [36]: 0.28%
